Consider 15 molecules from ChEMBL document CHEMBL1132897, “The basal SAR of a novel insulin receptor activator” (Bioorg Med Chem Lett, 2000).

Test [1] concerns the target Insulin receptor (Homo sapiens) (UniProt P06213). Kind of test: Percent activation of insulin receptor in CHO cells by 10 uM of compound. The test is classed as cell-based.
Test [2] shares this target. Briefly: Ability to activate the insulin receptor compared to that of lead structure 1 expressed as X/1.

Sequence of Insulin receptor (Homo sapiens) (P06213 28-758 limits assumed): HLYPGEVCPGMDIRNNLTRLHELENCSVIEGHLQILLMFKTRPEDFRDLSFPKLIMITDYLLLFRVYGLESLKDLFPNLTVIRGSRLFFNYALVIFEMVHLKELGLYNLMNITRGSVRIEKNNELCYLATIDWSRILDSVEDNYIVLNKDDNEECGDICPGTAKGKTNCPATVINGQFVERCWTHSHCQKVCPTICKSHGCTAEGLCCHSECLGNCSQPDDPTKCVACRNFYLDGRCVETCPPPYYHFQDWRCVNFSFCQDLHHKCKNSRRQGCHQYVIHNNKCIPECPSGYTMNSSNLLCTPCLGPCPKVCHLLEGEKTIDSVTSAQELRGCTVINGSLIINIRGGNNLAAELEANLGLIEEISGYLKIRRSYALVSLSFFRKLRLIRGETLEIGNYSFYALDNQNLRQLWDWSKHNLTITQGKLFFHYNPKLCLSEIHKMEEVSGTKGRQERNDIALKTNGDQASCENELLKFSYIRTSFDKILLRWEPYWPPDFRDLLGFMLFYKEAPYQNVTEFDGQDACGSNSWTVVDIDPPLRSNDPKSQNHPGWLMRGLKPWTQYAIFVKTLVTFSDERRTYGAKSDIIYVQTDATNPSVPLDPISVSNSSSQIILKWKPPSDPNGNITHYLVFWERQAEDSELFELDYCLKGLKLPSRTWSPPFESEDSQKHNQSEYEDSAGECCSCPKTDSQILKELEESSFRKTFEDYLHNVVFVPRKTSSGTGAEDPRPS
Sequence of Insulin receptor (Homo sapiens) (P06213 763-1382 limits assumed): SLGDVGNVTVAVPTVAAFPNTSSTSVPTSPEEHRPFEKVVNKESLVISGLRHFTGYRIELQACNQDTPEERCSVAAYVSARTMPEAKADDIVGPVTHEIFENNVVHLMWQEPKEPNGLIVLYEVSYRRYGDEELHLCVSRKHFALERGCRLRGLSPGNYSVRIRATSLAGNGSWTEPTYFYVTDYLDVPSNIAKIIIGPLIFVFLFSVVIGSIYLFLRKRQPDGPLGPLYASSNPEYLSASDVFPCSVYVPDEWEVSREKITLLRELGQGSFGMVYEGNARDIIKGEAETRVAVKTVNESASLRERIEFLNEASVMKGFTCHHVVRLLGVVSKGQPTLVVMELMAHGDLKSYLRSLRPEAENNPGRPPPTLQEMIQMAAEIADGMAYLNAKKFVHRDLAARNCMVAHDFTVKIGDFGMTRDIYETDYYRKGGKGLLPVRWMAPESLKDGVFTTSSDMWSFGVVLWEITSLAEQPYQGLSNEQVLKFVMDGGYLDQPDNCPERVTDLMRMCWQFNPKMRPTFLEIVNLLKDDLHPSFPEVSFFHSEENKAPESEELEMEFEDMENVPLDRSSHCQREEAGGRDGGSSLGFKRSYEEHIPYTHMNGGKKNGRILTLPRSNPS

Molecule `CCC(C)(C)c1[nH]c2ccccc2c1C1=C(O)C(O)=C(c2c[nH]c3c(CCC(C)C)cccc23)C(=O)C1=O` showed an Activation in test [1] of 57%. Further, the Relative activity in test [2] was determined as 0.76.

For the molecule `C=CC(C)(C)c1[nH]c2ccccc2c1C1=C(O)C(=N\C)/C(c2c[nH]c3c(CC=C(C)C)cccc23)=C(O)C/1=N/C`, in test [1], the Activation was determined as 1%. Also, in test [2], the Relative activity came out at 0.01.

`C=CC(C)(C)c1c(C2=C(O)C(O)=C(c3cn(C)c4c(CC=C(C)C)cccc34)C(=O)C2=O)c2ccccc2n1C`: the Activation in test [1] is 3%. The molecule further had a Relative activity in test [2] of 0.03.

`C=CC(C)(C)c1[nH]c2ccccc2c1C1=C(O)C(O)=C(c2c[nH]c3c(CC(O)C(C)(C)O)cccc23)C(=O)C1=O` (stereo not given) registered an Activation in test [1] of 75%. Further, the Relative activity in test [2] turned out to be 1.

`CCC(C)(C)c1[nH]c2ccccc2c1C1=C(O)C(O)=C(c2c[nH]c3c(CC=C(C)C)cccc23)C(=O)C1=O` showed an Activation in test [1] of 82%. Further, in test [2], the Relative activity worked out at 1.09.

`C=CC(C)(C)c1[nH]c2ccccc2c1C1=C(O)C(O)=C(c2cn(C)c3c(CC=C(C)C)cccc23)C(=O)C1=O` had an Activation in test [1] of 24%. The molecule also displayed a Relative activity in test [2] of 0.32.

For `C=CC(C)(C)c1[nH]c2ccccc2c1C1=C(OS(=O)(=O)C(F)(F)F)C(=O)C(c2c[nH]c3c(CC=C(C)C)cccc23)=C(N)C1=O`, the Activation in test [1] was determined as 0%. In test [2], this molecule came in with a Relative activity of 0.

The molecule `C=CC(C)(C)c1[nH]c2ccccc2c1C1=C(O)C(O)=C(c2c[nH]c3c(CCC(C)(C)OC(=O)C(F)(F)F)cccc23)C(=O)C1=O` had an Activation in test [1] of 48%. The Relative activity in test [2] worked out at 0.64.

In the case of `C=CC(C)(C)c1[nH]c2ccccc2c1C1=C(OS(=O)(=O)C(F)(F)F)C(=O)C(c2c[nH]c3c(CC=C(C)C)cccc23)=C(OS(=O)(=O)C(F)(F)F)C1=O`, the Activation in test [1] was 0%. This molecule also came in with a Relative activity in test [2] of 0.

Take `C=CC(C)(C)c1[nH]c2ccccc2c1C1=C(OC)C(=O)C(c2c[nH]c3c(CC=C(C)C)cccc23)=C(O)C1=O`: the Activation in test [1] was 16%. In addition, the Relative activity in test [2] was found to be 0.21.

Turning to `C=CC(C)(C)c1c(C2=C(O)C(O)=C(c3c[nH]c4c(CCC(C)(C)O)cccc34)C(=O)C2=O)c2ccccc2n1C`, in test [1], the Activation was 79%. In test [2], the Relative activity is 1.05.

In test [1], `C=CC(C)(C)c1[nH]c2ccccc2c1C1=C(OC)C(=O)C(c2c[nH]c3c(CC=C(C)C)cccc23)=C(OC)C1=O` displayed an Activation of 0%. In test [2], the Relative activity was 0.

With `C=CC(C)(C)c1[nH]c2ccccc2c1C1=C(O)C(O)=C(c2c[nH]c3c(CC=C(C)C)cccc23)C(=O)C1=O`, the Activation in test [1] was found to be 75%. Also, the Relative activity in test [2] was 1.

`C=CC(C)(C)c1[nH]c2ccccc2c1C1=C(O)C(O)=C(c2c[nH]c3c(CCC(C)(C)O)cccc23)C(=O)C1=O` gave an Activation in test [1] of 35%. The same molecule came in with a Relative activity in test [2] of 0.47.

In turn, `C=CC(C)(C)c1[nH]c2ccccc2c1C1=C(O)C(N)=C(c2c[nH]c3c(CC=C(C)C)cccc23)C(=O)C1=O` gave an Activation in test [1] of 2%. This molecule came in with a Relative activity in test [2] of 0.03.
